Counter-ions that a name gives are not always drawn.
Conditions: in vivo

O=C1OC2(c3ccc(O)cc3Oc3cc(O)ccc32)c2ccccc21 [Fluorescein, fluorescein disodium salt]
distribution by infection level: greater in trees with lower infection levels compared to trees with high infection levels | distribution in fruits vs leaves: higher in olive fruits than leaves | distribution throughout the tree: distributed evenly throughout the tree horizontally and vertically to all the sectors measured

— patent US12501864B2 (priority 2020, dated 2025)
